SMILES strings stand for the structures. pIC50: −log10 of the molar value.

In the assay the target is T1, fibrinogen receptor of blood platelets, glycoprotein IIb/IIIa (Homo sapiens, UniProt P05106+P08514).
T1 construct: Glycoprotein IIb/IIIa is obtained from Triton X-100 extracts of human blood platelets; from tissue; host or cells: human blood platelets (Triton X-100 extract)
T1 sequence (P08514 32-887 limits assumed): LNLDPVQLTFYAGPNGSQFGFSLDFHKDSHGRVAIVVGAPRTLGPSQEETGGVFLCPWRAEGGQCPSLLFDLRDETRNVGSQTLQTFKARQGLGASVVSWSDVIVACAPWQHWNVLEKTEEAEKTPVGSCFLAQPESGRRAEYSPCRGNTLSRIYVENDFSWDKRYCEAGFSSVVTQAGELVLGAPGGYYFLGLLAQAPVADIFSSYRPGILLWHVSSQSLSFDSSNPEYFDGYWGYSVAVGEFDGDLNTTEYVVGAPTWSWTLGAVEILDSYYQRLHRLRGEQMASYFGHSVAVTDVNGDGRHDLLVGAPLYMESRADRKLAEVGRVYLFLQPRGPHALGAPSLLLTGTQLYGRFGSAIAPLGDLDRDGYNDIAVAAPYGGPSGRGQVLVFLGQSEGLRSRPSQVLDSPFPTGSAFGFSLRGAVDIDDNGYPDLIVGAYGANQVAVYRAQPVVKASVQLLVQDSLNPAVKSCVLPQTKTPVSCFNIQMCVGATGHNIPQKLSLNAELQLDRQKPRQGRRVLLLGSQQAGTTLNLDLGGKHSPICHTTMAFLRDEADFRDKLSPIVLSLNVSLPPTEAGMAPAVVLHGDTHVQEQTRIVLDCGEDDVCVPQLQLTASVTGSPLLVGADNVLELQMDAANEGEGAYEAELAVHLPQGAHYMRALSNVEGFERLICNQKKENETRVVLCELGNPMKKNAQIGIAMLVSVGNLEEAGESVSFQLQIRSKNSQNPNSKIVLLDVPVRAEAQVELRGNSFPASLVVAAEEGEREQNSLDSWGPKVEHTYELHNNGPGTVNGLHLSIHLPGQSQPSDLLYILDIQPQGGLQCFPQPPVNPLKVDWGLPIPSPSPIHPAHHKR
T1 sequence (P08514 891-1039 limits assumed): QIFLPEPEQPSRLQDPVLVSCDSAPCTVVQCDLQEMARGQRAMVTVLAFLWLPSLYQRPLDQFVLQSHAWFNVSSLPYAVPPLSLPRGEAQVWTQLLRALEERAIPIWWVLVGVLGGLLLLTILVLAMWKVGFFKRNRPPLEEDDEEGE
T1 sequence (P05106 27-788): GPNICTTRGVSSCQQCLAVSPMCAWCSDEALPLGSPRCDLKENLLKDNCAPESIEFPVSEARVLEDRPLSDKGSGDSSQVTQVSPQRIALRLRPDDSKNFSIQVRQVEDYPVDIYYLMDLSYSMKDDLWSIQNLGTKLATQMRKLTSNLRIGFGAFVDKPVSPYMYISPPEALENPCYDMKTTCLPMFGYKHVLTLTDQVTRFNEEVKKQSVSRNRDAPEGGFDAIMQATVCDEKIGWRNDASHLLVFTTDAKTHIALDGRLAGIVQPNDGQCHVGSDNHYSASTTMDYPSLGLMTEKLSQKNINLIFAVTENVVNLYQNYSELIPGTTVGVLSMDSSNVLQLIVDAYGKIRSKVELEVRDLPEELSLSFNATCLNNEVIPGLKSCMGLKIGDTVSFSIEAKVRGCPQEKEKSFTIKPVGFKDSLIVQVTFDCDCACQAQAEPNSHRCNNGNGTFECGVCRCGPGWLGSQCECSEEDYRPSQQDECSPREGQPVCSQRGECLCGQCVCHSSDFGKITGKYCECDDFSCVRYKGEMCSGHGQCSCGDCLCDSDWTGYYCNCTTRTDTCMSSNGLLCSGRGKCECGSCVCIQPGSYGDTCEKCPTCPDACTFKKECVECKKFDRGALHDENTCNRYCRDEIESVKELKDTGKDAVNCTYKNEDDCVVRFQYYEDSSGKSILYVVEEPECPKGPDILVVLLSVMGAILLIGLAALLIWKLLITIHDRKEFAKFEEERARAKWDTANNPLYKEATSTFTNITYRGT
Briefly: Inhibition of fibrinogen binding to immobilized glycoprotein IIb/IIIa (ELISA). Conditions: purified glycoprotein IIb/IIIa from human blood platelets bound to microtitre plates, read-out: IC50 (concentration of test substance required to inhibit the binding of fibrinogen to the immobilized receptor by 50%). On the procedure: Glycoprotein IIb/IIIa is obtained from Triton X-100 extracts of human blood platelets and purified by lectin affinity chromatography (Analytical Biochemistry 151, 1985, 169-177) and chromatography on an Arg-Gly-Asp-Ser affinity column (Science 231, 1986, 1559-62). The receptor protein obtained in this way is bound to microtitre plates. The specific binding of fibrinogen to the immobilized receptor is determined using an ELISA system (enzyme-linked immunosorbent assay). The IC50 values hereinafter correspond to that concentration of the test substance required to inhibit the binding of fibrinogen to the immobilized receptor by 50%: […]
Turning to `C[C@H](Cc1ccc([C@H](C)CC(=O)O)s1)NC(=O)c1ccc(C(=N)N)cc1` (racemic) [Example 40, (RS)-5-[(RS)-2-(p-amidinobenzamido)propyl]-β-methyl-2-thiophene-propionic acid], the pIC50 is 7.40. Then `COC(=O)COc1ccc(CCNC(=O)c2ccc(C(=N)N)cc2)cc1` [Example 1, Methyl p-[2-(p-amidinobenzamido)ethyl]phenoxyacetate], with 6.43; and `N=C(N)c1ccc(C(=O)NCCc2ccc(OCC(=O)O)cc2)cc1` [Example 2, p-[2-(amidinobenzamido)ethyl]phenoxyaceticacid], with 7.40. With `N=C(N)c1ccc(S(=O)(=O)NCCOc2ccc(CC(=O)O)cc2)cc1` [Example 10, p-[2-(p-amidinophenylsulphonamido)ethoxy]phenylacetic acid], the pIC50 was 6.19. Turning to `N=C(N)c1ccc(S(=O)(=O)NCCc2ccc(OCC(=O)O)cc2)cc1` [Example 12, p-[2-(p-amidinobenzenesulphonamido)ethyl]phenoxyacetic acid], the pIC50 was 7.00. As for `N=C(N)c1ccc(S(=O)(=O)N(CCc2ccc(OCC(=O)O)cc2)Cc2ccccc2)cc1` [Example 18, p-[2-(p-amidino-N-benzylphenylsulphonamido)ethyl]phenoxyacetic acid], the pIC50 was 6.14. Then `N=C(N)c1ccc(S(=O)(=O)NCC(O)c2ccc(OCC(=O)O)cc2)cc1` (centres unmarked) [Example 20, p-[2-(p-amidinobenzenesulphonamido)-1-hydroxyethyl]phenoxyacetic acid], with 6.33. Then `CC(CC(=O)O)c1ccc(CCNS(=O)(=O)c2ccc(C(=N)N)cc2)cc1` (stereo not drawn) [Example 36, p-[2-(p-amidinophenylsulphonamido)ethyl]-β-methyl-hydrocinnamic acid], with 7.00; and `N=C(N)c1ccc(S(=O)(=O)NCCCc2ccc(CC(=O)O)cc2)cc1` [Example 46, p-[3-(p-amidinophenylsulphonamido)propyl]phenylacetic acid], with 6.52. For `N=C(N)c1ccc(C(=O)NCCc2ccc(OCC(=O)O)cc2)cn1` [Example 48] the value was 7.52. For the molecule `N=C(N)c1ccc(CC(=O)NCc2ccc(OCC(=O)O)cc2)cc1` [Example 78, p-[2-(p-amidinophenyl)acetamido]-p-tolyloxyacetic acid], the pIC50 was 6.01. Then `N=C(N)c1ccc(C(=O)N[C@@H](CO)Cc2ccc(OCC(=O)O)cc2)cc1` [Example 81, p-[(R)-2-(p-amidinobenzamido)-3-hydroxypropyl)phenoxyacetic acid], with 7.10; and `COC(=O)COc1ccc(C(=O)CN(C)C(=O)c2ccc(C(=N)N)cc2)cc1OCC(=O)OC` [Example 82, dimethyl [4-(p-amidino-N-methylbenzamido)acetyl-o-phenylenedioxy]diacetate], with 8.09; and `CN(CC(=O)c1ccc(OCC(=O)O)c(OCC(=O)O)c1)C(=O)c1ccc(C(=N)N)cc1` [Example 83, [4-(p-amidino-N-methylbenzamido)acetyl-o-phenylenedioxy]diacetic acid], with 10.15.

Values taken from US5399585A, “Carboxamides and sulfonamides compounds which have useful pharmaceutical utility” (Hoffmann-La Roche Inc., priority 1989, dated 1995).
